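Cells were grown in 96-well plates and exposed to each compound for 48 hours at five concentrations; endpoints were interpolated linearly between bracketing concentrations, or set to the highest concentration if not reached. At the TGI there is no net growth.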 Some results are limits rather than exact numbers.

Some test systems named below: 786-0 renal; CAKI-1 renal; HL-60(TB) leukemia; HS 578T breast; KM12 colon; MCF7 breast; MOLT-4 leukemia; NCI-H226 lung; NCI/ADR-RES ovarian; OVCAR-8 ovarian; PC-3 prostate; SF-268 CNS; SF-295 CNS; SN12C renal; SNB-75 CNS; HCC-2998 colon; K-562 leukemia; NCI-H460 lung.
What all share (experiment): NCI anticancer screen, dose series, 48 h

For the molecule `N#CCCC1(CCC#N)S(=O)(=O)OCCOS1(=O)=O`, the TGI is > 100 µM in the experiment with 786-0 renal; > 100 µM in the experiment with CAKI-1 renal; 69.4 µM in the experiment on HL-60(TB) leukemia; 78.4 µM with HS 578T breast; > 100 µM in the experiment on KM12 colon; > 100 µM in the experiment on MCF7 breast. Also, the TGI in the experiment on MOLT-4 leukemia, in the experiment on NCI-H226 lung, in the experiment with NCI/ADR-RES ovarian, with OVCAR-8 ovarian, in the experiment on PC-3 prostate and in the experiment with SF-268 CNS was > 100 µM in each case. The TGI with SF-295 CNS, in the experiment with SN12C renal and with SNB-75 CNS was > 100 µM in each case.

With `NC1=NC(c2ccc(Cl)cc2)=CC(c2cccc(Cl)c2)S1` (stereo unspecified), the TGI with 786-0 renal is > 100 µM; with CAKI-1 renal it was 92.5 µM; in the experiment with HCC-2998 colon it was 80.9 µM; with HL-60(TB) leukemia it was > 100 µM; in the experiment with HS 578T breast, 66.7 µM; in the experiment on K-562 leukemia, > 100 µM. In addition, the TGI is > 100 µM in the experiment with KM12 colon; > 100 µM with MCF7 breast; > 100 µM with MOLT-4 leukemia; 71.9 µM in the experiment on NCI-H226 lung; > 100 µM in the experiment with NCI-H460 lung; > 100 µM in the experiment on NCI/ADR-RES ovarian. Further, the TGI was > 100 µM in the experiment on OVCAR-8 ovarian; > 100 µM in the experiment with PC-3 prostate; > 100 µM with SF-268 CNS; > 100 µM in the experiment on SF-295 CNS; 85.2 µM in the experiment on SN12C renal.

For `COc1cc2c(cc1NC(=O)c1ccccc1)c1c(n2S(=O)(=O)c2ccccc2)CCN(S(=O)(=O)c2ccccc2)C1`, the TGI with 786-0 renal, in the experiment on HCC-2998 colon, in the experiment with HL-60(TB) leukemia, in the experiment with HS 578T breast, in the experiment with K-562 leukemia and in the experiment with KM12 colon was > 100 µM in each case. Further, the TGI with MOLT-4 leukemia, in the experiment with NCI-H226 lung, in the experiment with NCI-H460 lung, in the experiment with NCI/ADR-RES ovarian, in the experiment on OVCAR-8 ovarian and in the experiment with PC-3 prostate was > 100 µM throughout. Besides, the TGI with SF-268 CNS and in the experiment with SNB-75 CNS was > 100 µM in each case.

As for `COc1cc(C2C(C(=O)NCc3ccccc3)=C(C)NC(C)=C2C(=O)NCc2ccccc2)ccc1O`, the TGI with 786-0 renal was > 100 µM; with CAKI-1 renal, 75.1 µM; in the experiment on HCC-2998 colon, 51.6 µM; in the experiment with HL-60(TB) leukemia it was 66.5 µM; in the experiment with K-562 leukemia it was > 100 µM; in the experiment on MOLT-4 leukemia, 55.8 µM. The TGI in the experiment with NCI-H226 lung, with NCI-H460 lung, in the experiment with OVCAR-8 ovarian, in the experiment with SF-268 CNS, with SF-295 CNS and with SN12C renal was > 100 µM in each case. Further, the TGI with SNB-75 CNS was > 100 µM.

As to `COC(=O)C(=O)C(C(=O)OC)C(=O)C(=O)Nc1cc(Cl)c(C)cc1S(=O)(=O)O` (stereo unspecified), the TGI with 786-0 renal, in the experiment with CAKI-1 renal, with HCC-2998 colon, in the experiment with HL-60(TB) leukemia, in the experiment on K-562 leukemia and in the experiment with KM12 colon was > 100 µM each time. Besides, the TGI in the experiment on MOLT-4 leukemia, in the experiment on NCI-H226 lung, with NCI-H460 lung, in the experiment on OVCAR-8 ovarian, with SF-268 CNS and with SF-295 CNS was > 100 µM each time. Besides, the TGI in the experiment on SN12C renal and in the experiment with SNB-75 CNS was > 100 µM in each case.

For `O=C(Nn1c(-c2ccccc2)nc2ccccc2c1=O)c1cccc([N+](=O)[O-])c1`, the TGI in the experiment with 786-0 renal, in the experiment with HCC-2998 colon, with HL-60(TB) leukemia, in the experiment with HS 578T breast, in the experiment with K-562 leukemia and in the experiment with KM12 colon was > 100 µM in each case. For the same molecule, the TGI with MCF7 breast, in the experiment with MOLT-4 leukemia, in the experiment with NCI-H226 lung, with NCI-H460 lung, with OVCAR-8 ovarian and in the experiment with PC-3 prostate was > 100 µM throughout. Further, the TGI with SF-268 CNS, in the experiment on SN12C renal and with SNB-75 CNS was > 100 µM each time.

With `O=C1C(Cl)C(c2ccc(O)cc2)N1n1cnc2ccccc2c1=O` (stereo unspecified), the TGI with 786-0 renal was > 100 µM; in the experiment on CAKI-1 renal, > 60.3 µM; in the experiment on HCC-2998 colon, > 100 µM; in the experiment with HL-60(TB) leukemia, 72.3 µM; in the experiment with K-562 leukemia, > 100 µM; in the experiment on KM12 colon it was > 100 µM. The TGI in the experiment on MOLT-4 leukemia is 93.4 µM; with NCI-H226 lung, > 100 µM; with NCI-H460 lung, > 100 µM; in the experiment on OVCAR-8 ovarian, 26 µM; with SF-268 CNS it was > 100 µM; in the experiment with SF-295 CNS, > 100 µM. Also, the TGI in the experiment on SN12C renal and with SNB-75 CNS was > 100 µM in each case.

As to `Cc1cc(C)c(NS(=O)c2ccc(Cl)cc2)c(C)c1` (stereo unspecified), the TGI in the experiment on 786-0 renal, in the experiment with HCC-2998 colon, in the experiment with HL-60(TB) leukemia, in the experiment on K-562 leukemia, in the experiment on KM12 colon and with MCF7 breast was > 100 µM each time. Further, the TGI with MOLT-4 leukemia, in the experiment with NCI-H226 lung, in the experiment with NCI-H460 lung, with NCI/ADR-RES ovarian, with OVCAR-8 ovarian and with PC-3 prostate was > 100 µM in each case. For the same molecule, the TGI in the experiment with SF-268 CNS, in the experiment with SF-295 CNS and in the experiment on SN12C renal was > 100 µM in each case.

Turning to `O=C(O)C12C3CCC(C3)C1(C(=O)O)C1CCC2C1` (stereo unspecified), the TGI in the experiment with 786-0 renal, with CAKI-1 renal, in the experiment on HCC-2998 colon, with HL-60(TB) leukemia, in the experiment on K-562 leukemia and in the experiment on KM12 colon was > 100 µM throughout. Besides, the TGI in the experiment on MOLT-4 leukemia, with NCI-H226 lung, in the experiment with NCI-H460 lung, in the experiment on OVCAR-8 ovarian, with SF-268 CNS and in the experiment on SF-295 CNS was > 100 µM throughout. In addition, the TGI in the experiment on SN12C renal and in the experiment with SNB-75 CNS was > 100 µM in each case.

(Values after PubChem BioAssay (NCI).)
